# Laboratory results taken from US20240132484A1, “BROAD SPECTRUM ANTIVIRAL COMPOUNDS TARGETING THE SKI COMPLEX” (priority 2020, published 2024).
# Several values for one entry are separate records, joined by “and”; a condition that tells them apart may be missing. Equal entries are not always repeated. Where two headings read alike, the source gives them in different places.
# Columns and labels:
# [1] = tested on: SARS2; type: cell-based, SARS-CoV-2; conditions: for Infection Data: Percentage Infection Relative to Appropriate DMSO Control: avg background subtraction, replicate wells; for Infection Data: Average, Mean / Infection Data, Average, Mean: average of Exp 1-3 (SMW475, SMW477, SMW478); for Infection Data: Average, Mean: n 9; for Percentage Inhibition Average 1 μM / Screening data (Relative infection to DMSO controls) Average 1 μM: SARS2, 1 μM; for Screening data (Relative infection to DMSO controls) Average 1 μM / Screening data (Relative infection to DMSO controls) Average 5 μM / Screening data (Relative infection to DMSO controls) Average 10 μM / Screening data (Relative infection to DMSO controls) Average 25 μM / Screening data (Relative infection to DMSO controls) Average 50 μM / Average (relative infection to DMSO over the 5 tested concentrations): 100=DMSO control; for Percentage Inhibition Average 5 μM / Screening data (Relative infection to DMSO controls) Average 5 μM: SARS2, 5 μM; for Percentage Inhibition Average 10 μM / Screening data (Relative infection to DMSO controls) Average 10 μM: SARS2, 10 μM; for Percentage Inhibition Average 25 μM / Screening data (Relative infection to DMSO controls) Average 25 μM: SARS2, 25 μM; for Percentage Inhibition Average 50 μM / Screening data (Relative infection to DMSO controls) Average 50 μM: SARS2, 50 μM; for Average (relative infection to DMSO over the 5 tested concentrations): SARS2, average over 1 to 50 uM
# [2] = tested on: cells (nuclei count); conditions: for Toxicity Data: Average, Mean / Toxicity Data, Average, Mean: average of Exp 1-3 (SMW475, SMW477, SMW478); for Toxicity Data: Average, Mean: n 9; for Relative cell count to DMSO controls, Average 1 μM / Relative cell count to DMSO controls, Average 5 μM / Relative cell count to DMSO controls, Average 10 μM / Relative cell count to DMSO controls, Average 25 μM / Relative cell count to DMSO controls, Average 50 μM: toxicity data, 100=DMSO control; for Relative cell count to DMSO controls, Average (for correlation analysis): average value over the 5 tested concentrations (1 to 50 uM)
structure (smiles),measurement,setting,value
Cc1cc(CN(CCN(C)C)Cc2ccncc2)sc1Br [SILCS14],Infection Data: Percentage Infection Relative to Appropriate DMSO Control,"[1]; 1 uM, Exp 1 (SMW475)",112.00% and 92.09% and 122.87%
same,Infection Data: Percentage Infection Relative to Appropriate DMSO Control,"[1]; 1 uM, Exp 2 (SMW477)",91.97% and 93.96% and 99.35%
same,Infection Data: Percentage Infection Relative to Appropriate DMSO Control,"[1]; 1 uM, Exp 3 (SMW478)",112.26% and 106.71% and 118.52%
same,"Infection Data: Average, Mean",[1]; 1 uM,105.53%
same,Infection Data: Percentage Infection Relative to Appropriate DMSO Control,"[1]; 5 uM, Exp 1 (SMW475)",112.88% and 98.55% and 115.50%
same,Infection Data: Percentage Infection Relative to Appropriate DMSO Control,"[1]; 5 uM, Exp 2 (SMW477)",105.78% and 98.21% and 86.55%
same,Infection Data: Percentage Infection Relative to Appropriate DMSO Control,"[1]; 5 uM, Exp 3 (SMW478)",109.15% and 113.38% and 106.22%
same,"Infection Data: Average, Mean",[1]; 5 uM,105.13%
same,Infection Data: Percentage Infection Relative to Appropriate DMSO Control,"[1]; 10 uM, Exp 1 (SMW475)",92.53% and 120.55% and 101.62%
same,Infection Data: Percentage Infection Relative to Appropriate DMSO Control,"[1]; 10 uM, Exp 2 (SMW477)",84.89% and 81.65% and 69.99%
same,Infection Data: Percentage Infection Relative to Appropriate DMSO Control,"[1]; 10 uM, Exp 3 (SMW478)",92.27% and 101.81% and 99.27%
same,"Infection Data: Average, Mean",[1]; 10 uM,93.84%
same,Infection Data: Percentage Infection Relative to Appropriate DMSO Control,"[1]; 25 uM, Exp 1 (SMW475)",11.84% and 13.81% and 11.60%
same,Infection Data: Percentage Infection Relative to Appropriate DMSO Control,"[1]; 25 uM, Exp 2 (SMW477)",19.70% and 19.93% and 22.53%
same,Infection Data: Percentage Infection Relative to Appropriate DMSO Control,"[1]; 25 uM, Exp 3 (SMW478)",9.11% and 11.10% and 12.21%
same,"Infection Data: Average, Mean",[1]; 25 uM,14.65%
same,Infection Data: Percentage Infection Relative to Appropriate DMSO Control,"[1]; 50 uM, Exp 1 (SMW475)",2.09% and 3.52% and 1.22%
same,Infection Data: Percentage Infection Relative to Appropriate DMSO Control,"[1]; 50 uM, Exp 2 (SMW477)",1.91% and −0.25% and −0.24%
same,Infection Data: Percentage Infection Relative to Appropriate DMSO Control,"[1]; 50 uM, Exp 3 (SMW478)",3.06% and 0.62% and 3.25%
same,"Infection Data: Average, Mean",[1]; 50 uM,1.69%
same,Percentage Inhibition Average 1 μM,[1],−5.53%
same,Screening data (Relative infection to DMSO controls) Average 1 μM,[1],105.53
same,Percentage Inhibition Average 5 μM,[1],−5.13%
same,Screening data (Relative infection to DMSO controls) Average 5 μM,[1],105.13
same,Percentage Inhibition Average 10 μM,[1],6.16%
same,Screening data (Relative infection to DMSO controls) Average 10 μM,[1],93.84
same,Percentage Inhibition Average 25 μM,[1],85.35%
same,Screening data (Relative infection to DMSO controls) Average 25 μM,[1],14.65
same,Percentage Inhibition Average 50 μM,[1],98.31%
same,Screening data (Relative infection to DMSO controls) Average 50 μM,[1],1.69
same,Average (relative infection to DMSO over the 5 tested concentrations),[1],64.17
same,"Toxicity Data: Average, Mean",[2]; 1 uM,105.49%
same,"Relative cell count to DMSO controls, Average 1 μM",[2],105.49
same,"Toxicity Data: Average, Mean",[2]; 5 uM,103.93%
same,"Relative cell count to DMSO controls, Average 5 μM",[2],103.93
same,"Toxicity Data: Average, Mean",[2]; 10 uM,108.29%
same,"Relative cell count to DMSO controls, Average 10 μM",[2],108.29
same,"Toxicity Data: Average, Mean",[2]; 25 uM,139.75%
same,"Relative cell count to DMSO controls, Average 25 μM",[2],139.75
same,"Toxicity Data: Average, Mean",[2]; 50 uM,16.80%
same,"Relative cell count to DMSO controls, Average 50 μM",[2],16.8
same,"Relative cell count to DMSO controls, Average (for correlation analysis)",[2],94.85
COC(=O)c1csc(CN(CCN(C)C)Cc2ccccc2)c1 [SILCS30],SARS2 antiviral activity,[1],decrease in activity
same,Percentage Infection Relative to Appropriate DMSO Control with Avg Background Subtraction,"[1]; Exp 1 (SMW475), 1 uM, single well",105.27% and 104.72% and 85.58%
same,Percentage Infection Relative to Appropriate DMSO Control with Avg Background Subtraction,"[1]; Exp 1 (SMW475), 10 uM, single well",111.40% and 92.91% and 108.37%
same,Percentage Infection Relative to Appropriate DMSO Control with Avg Background Subtraction,"[1]; Exp 1 (SMW475), 25 uM, single well",63.92% and 51.24% and 55.41%
same,Percentage Infection Relative to Appropriate DMSO Control with Avg Background Subtraction,"[1]; Exp 1 (SMW475), 50 uM, single well",32.13% and 25.36% and 23.71%
same,Percentage Infection Relative to Appropriate DMSO Control with Avg Background Subtraction,"[1]; Exp 2 (SMW477), 1 uM, single well",113.51% and 96.27% and 114.57%
same,Percentage Infection Relative to Appropriate DMSO Control with Avg Background Subtraction,"[1]; Exp 2 (SMW477), 5 uM, single well",117.23% and 99.87% and 114.31%
same,Percentage Infection Relative to Appropriate DMSO Control with Avg Background Subtraction,"[1]; Exp 2 (SMW477), 10 uM, single well",121.60% and 100.99% and 139.28%
same,Percentage Infection Relative to Appropriate DMSO Control with Avg Background Subtraction,"[1]; Exp 2 (SMW477), 25 uM, single well",71.18% and 69.34% and 78.15%
same,Percentage Infection Relative to Appropriate DMSO Control with Avg Background Subtraction,"[1]; Exp 2 (SMW477), 50 uM, single well",17.82% and 25.00% and 26.06%
same,Percentage Infection Relative to Appropriate DMSO Control with Avg Background Subtraction,"[1]; Exp 3 (SMW478), 1 uM, Greiner Celigo plates",81.75% and 100.71% and 99.49%
same,Percentage Infection Relative to Appropriate DMSO Control with Avg Background Subtraction,"[1]; Exp 3 (SMW478), 5 uM, Greiner Celigo plates",89.39% and 93.72% and 82.15%
same,Percentage Infection Relative to Appropriate DMSO Control with Avg Background Subtraction,"[1]; Exp 3 (SMW478), 10 uM, Greiner Celigo plates",73.78% and 69.60% and 68.94%
same,Percentage Infection Relative to Appropriate DMSO Control with Avg Background Subtraction,"[1]; Exp 3 (SMW478), 25 uM, Greiner Celigo plates",79.03% and 71.83% and 64.72%
same,Percentage Inhibition Average 1 μM,[1],−0.21%
same,Screening data (Relative infection to DMSO controls) Average 1 μM,[1],100.21
same,Percentage Inhibition Average 5 μM,[1],15.19%
same,Screening data (Relative infection to DMSO controls) Average 5 μM,[1],84.81
same,Percentage Inhibition Average 10 μM,[1],1.46%
same,Screening data (Relative infection to DMSO controls) Average 10 μM,[1],98.54
same,Percentage Inhibition Average 25 μM,[1],32.80%
same,Screening data (Relative infection to DMSO controls) Average 25 μM,[1],67.20
same,Percentage Inhibition Average 50 μM,[1],75.16%
same,Screening data (Relative infection to DMSO controls) Average 50 μM,[1],24.84
same,Average (relative infection to DMSO over the 5 tested concentrations),[1],75.12
same,"Infection Data, Average, Mean","[1]; n 9, 1 uM",100.21%
same,"Infection Data, Average, Mean","[1]; n 9, 5 uM",84.81%
same,"Infection Data, Average, Mean","[1]; n 9, 10 uM",98.54%
same,"Infection Data, Average, Mean","[1]; n 9, 25 uM",67.20%
same,"Infection Data, Average, Mean","[1]; n 9, 50 uM",24.84%
same,"Relative cell count to DMSO controls, Average 1 μM",[2],108.24
same,"Relative cell count to DMSO controls, Average 5 μM",[2],110.62
same,"Relative cell count to DMSO controls, Average 10 μM",[2],102.59
same,"Relative cell count to DMSO controls, Average 25 μM",[2],104.38
same,"Relative cell count to DMSO controls, Average 50 μM",[2],86.57
same,"Toxicity Data, Average, Mean","[2]; n 9, 1 uM",108.24%
same,"Toxicity Data, Average, Mean","[2]; n 9, 5 uM",110.62%
same,"Toxicity Data, Average, Mean","[2]; n 9, 10 uM",102.59%
same,"Toxicity Data, Average, Mean","[2]; n 9, 25 uM",104.38%
same,"Toxicity Data, Average, Mean","[2]; n 9, 50 uM",86.57%
same,"Relative cell count to DMSO controls, Average (for correlation analysis)",[2],102.48
CN(C)CCN(Cc1ccsc1)Cc1ccc(CO)o1 [SILCS9],"Percentage Infection Relative to DMSO Control, Average, Mean",[1],95.98% and 111.45% and 120.58% and 120.66% and 113.21%
same,SARS2 antiviral activity,[1],significant loss of activity
same,Percentage Inhibition Average 1 μM,[1],−13.21%
same,Screening data (Relative infection to DMSO controls) Average 1 μM,[1],113.21
same,Percentage Inhibition Average 5 μM,[1],−20.66%
same,Screening data (Relative infection to DMSO controls) Average 5 μM,[1],120.66
same,Percentage Inhibition Average 10 μM,[1],−20.58%
same,Screening data (Relative infection to DMSO controls) Average 10 μM,[1],120.58
same,Percentage Inhibition Average 25 μM,[1],−11.45%
same,Screening data (Relative infection to DMSO controls) Average 25 μM,[1],111.45
same,Percentage Inhibition Average 50 μM,[1],4.02%
same,Screening data (Relative infection to DMSO controls) Average 50 μM,[1],95.98
same,Average (relative infection to DMSO over the 5 tested concentrations),[1],112.38
same,"Relative cell count to DMSO controls, Average 1 μM",[2],105.37
same,"Relative cell count to DMSO controls, Average 5 μM",[2],103.56
same,"Relative cell count to DMSO controls, Average 10 μM",[2],111.19
same,"Relative cell count to DMSO controls, Average 25 μM",[2],92.21
same,"Relative cell count to DMSO controls, Average 50 μM",[2],60.67
same,"Toxicity Data, Average, Mean (relative to DMSO control)","[2]; Average of Exp 1-3, 1 uM",105.37%
same,"Toxicity Data, Average, Mean (relative to DMSO control)","[2]; Average of Exp 1-3, 5 uM",103.56%
same,"Toxicity Data, Average, Mean (relative to DMSO control)","[2]; Average of Exp 1-3, 10 uM",111.19%
same,"Toxicity Data, Average, Mean (relative to DMSO control)","[2]; Average of Exp 1-3, 25 uM",92.21%
same,"Toxicity Data, Average, Mean (relative to DMSO control)","[2]; Average of Exp 1-3, 50 uM",60.67%
same,"Relative cell count to DMSO controls, Average (for correlation analysis)",[2],94.60
